Laboratory results as given in patent US8304422B2, “Compositions and methods for inhibition of the JAK pathway” (Rigel Pharmaceuticals, Inc., priority 2007, dated 2012).

Tested on: BaF3 V617F cells; UKE-1
Assay: Proliferation Assay (Cell Titer-Glo; Example 7)
Assay type: cell-based
Conditions: proliferation 72 hours, inhibit JAK2 activity, cell line (BaF3 V617F or UKE-1) not stated
Summary of the method: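 Proliferation IC50s reflect 72 h compound exposure at 37 °C, read by Cell Titer-Glo luminescence. Compound was serially diluted 3-fold from a 5 mM DMSO stock and added as a 2× solution; BaF3 V617F cells were grown in RPMI/10% FBS, UKE-1 in Iscove's DMEM with FBS, equine serum and hydrocortisone.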

| Compound | IC50 [nM] |
| --- | --- |
| Cc1cc(CNS(=O)(=O)NC2CC2)ccc1Nc1nc(Nc2ccc(N3CCN(C)CC3)nc2)ncc1Cl [II-182, 5-Chloro-N4-[2-methyl-4-((N-cyclopropylamino)sulfonylamino)methylphenyl]-N2-[6-(4-methyl-1-piperazinyl)-3-pyridinyl]-2,4-pyrimidinediamine] | 711 |
| Cc1cc(Nc2ncc(C)c(Nc3ccc(CNS(=O)(=O)C4CC4)cc3)n2)ccc1N1C[C@@H]2C[C@H]1CN2C [II-184, N4-[4-(N-Cyclopropylsulfonylamino)methylphenyl]-5-methyl-N2-[3-methyl-4-[(1S,4S)-5-methyl-2,5-diazabicyclo[2.2.1]hept-2-yl]phenyl]-2,4-pyrimidinediamine] | 892 |
| CN1CCC(c2ccc(Nc3ncc(Cl)c(Nc4ccc(CNS(=O)(=O)C5CC5)cc4)n3)cc2)CC1 [II-187, 5-Chloro-N4-[4-(N-cyclopropylsulfonylaminomethyl)phenyl]-N2-[4-(N-methylpiperidin-4-yl)phenyl]-2,4-pyrimidinediamine] | 293 |
| CN1CCC(c2ccc(Nc3ncc(Cl)c(Nc4cccc(CNS(=O)(=O)C5CC5)c4)n3)cc2)CC1 [II-190, 5-Chloro-N4-[3-(N-cyclopropylsulfonylaminomethyl)phenyl]-N2-[4-(N-methylpiperidin-4-yl)phenyl]-2,4-pyrimidinediamine] | 701 |
| COc1c(C)cc(Nc2ncc(Cl)c(Nc3cccc(CNS(=O)(=O)C4CC4)c3)n2)cc1C [II-192, 5-Chloro-N4-[3-(N-cyclopropylsulfonylamino)methylphenyl]-N2-[3,5-dimethyl-4-methoxyphenyl]-2,4-pyrimidinediamine] | 378 |
| O=S(=O)(NCc1ccc(Nc2nc(Nc3ccc(-c4cccnc4)cc3)ncc2Cl)cc1)C1CC1 [II-193, 5-Chloro-N4-[4-(N-cyclopropylsulfonylamino)methylphenyl]-N2-[4-(3-pyridinyl)phenyl]-2,4-pyrimidinediamine] | 1300 |
| O=S(=O)(NCc1cccc(Nc2nc(Nc3ccc(-c4cccnc4)cc3)ncc2Cl)c1)C1CC1 [II-194, 5-Chloro-N4-[3-(N-cyclopropylsulfonylamino)methylphenyl]-N2-[4-(3-pyridinyl)phenyl]-2,4-pyrimidinediamine] | 1340 |
| COc1cc(Nc2ncc(F)c(Nc3ccc(CNS(=O)(=O)C4CC4)cc3)n2)cc(C)c1OC [II-195, 5-Fluoro-N4-[4-(N-cyclopropylsulfonylamino)methylphenyl]-N2-[3,4-dimethoxy-5-methylphenyl]-2,4-pyrimidinediamine] | 180 |
| COc1cc(Nc2ncc(C)c(Nc3ccc(CNS(=O)(=O)C4CC4)cc3)n2)cc(C)c1OC [II-197, 5-Methyl-N4-[4-(N-cyclopropylsulfonylamino)methylphenyl]-N2-[3,4-dimethoxy-5-methylphenyl]-2,4-pyrimidinediamine] | 92 |
| COc1c(C)cc(Nc2ncc(C)c(Nc3ccc(CNS(=O)(=O)C4CC4)cc3)n2)cc1C [II-201, 5-Methyl-N4-[4-(N-cyclopropylsulfonylamino)methylphenyl]-N2-[3,5-dimethyl-4-methoxyphenyl]-2,4-pyrimidinediamine] | 174 |
| Cc1cc(Nc2ncc(C)c(Nc3ccc(CNS(=O)(=O)C4CC4)cc3)n2)ccc1N1CCN(C)CC1 [II-202, 5-Methyl-N4-[4-(N-cyclopropylsulfonylamino)methylphenyl]-N2-[3-methyl-4-(N-methylpiperizin-4-yl)phenyl]-2,4-pyrimidinediamine] | 1440 |
| CCN1CCN(c2ccc(Nc3ncc(C)c(Nc4ccc(CNS(=O)(=O)C5CC5)cc4)n3)cc2)CC1 [II-204, 5-Methyl-N4-[4-(N-cyclopropylsulfonylamino)methylphenyl]-N2-[4-(N-ethylpiperizin-4-yl)phenyl]-2,4-pyrimidinediamine] | 175 |
| Cc1cnc(Nc2ccc(N3CCN(S(C)(=O)=O)CC3)cc2)nc1Nc1ccc(CNS(=O)(=O)C2CC2)cc1 [II-206] | 1560 |
| CCOc1c(C)cc(Nc2ncc(C)c(Nc3ccc(CNS(=O)(=O)C4CC4)cc3)n2)cc1C [II-214, 5-Methyl-N4-[4-(N-cyclopropylsulfonylamino)methylphenyl]-N2-[3,5-dimethyl-4-ethoxyphenyl]-2,4-pyrimidinediamine] | 55.6 |
| Cc1cnc(Nc2cnccc2N2CCN(C)CC2)nc1Nc1ccc(CNS(=O)(=O)C2CC2)cc1 [II-215, 5-Methyl-N4-[4-(N-cyclopropylsulfonylamino)methylphenyl]-N2-[4-(N-methylpiperizin-4-yl)pyridine-3-yl]-2,4-pyrimidinediamine] | 1520 |

The remaining lines, values ahead:

| IC50 [nM] | Compound |
| --- | --- |
| 128 | COc1cc(Nc2ncc(Cl)c(Nc3ccc(CNS(=O)(=O)C4CC4)cc3)n2)cc(OC)c1OC [II-186, 5-Chloro-N4-[4-(N-cyclopropylsulfonylaminomethyl)phenyl]-N2-[3,4,5-trimethoxyphenyl]-2,4-pyrimidinediamine] |
| 546 | COc1cc(Nc2ncc(Cl)c(Nc3cccc(CNS(=O)(=O)C4CC4)c3)n2)cc(OC)c1OC [II-189, 5-Chloro-N4-[3-(N-cyclopropylsulfonylamino)methylphenyl]-N2-[3,4,5-trimethoxyphenyl]-2,4-pyrimidinediamine] |
| 597 | COc1cc(Nc2ncc(F)c(Nc3ccc(CNS(=O)(=O)C4CC4)cc3)n2)cc(Cl)c1OC [II-196, 5-Fluoro-N4-[4-(N-cyclopropylsulfonylamino)methylphenyl]-N2-[3,4-dimethoxy-5-chlorophenyl]-2,4-pyrimidinediamine] |
| 116 | COc1cc(Nc2ncc(C)c(Nc3ccc(CNS(=O)(=O)C4CC4)cc3)n2)cc(Cl)c1OC [II-198, 5-Methyl-N4-[4-(N-cyclopropylsulfonylamino)methylphenyl]-N2-[3,4-dimethoxy-5-chlorophenyl]-2,4-pyrimidinediamine] |
| 57.2 | COc1cc(Nc2ncc(Cl)c(Nc3ccc(CNS(=O)(=O)C4CC4)cc3)n2)cc(C)c1OC [II-199, 5-Chloro-N4-[4-(N-cyclopropylsulfonylamino)methylphenyl]-N2-[3,4-dimethoxy-5-methylphenyl]-2,4-pyrimidinediamine] |
| 276 | COc1cc(Nc2ncc(Cl)c(Nc3ccc(CNS(=O)(=O)C4CC4)cc3)n2)cc(Cl)c1OC [II-200, 5-Chloro-N4-[4-(N-cyclopropylsulfonylamino)methylphenyl]-N2-[3,4-dimethoxy-5-chlorophenyl]-2,4-pyrimidinediamine] |
| 317 | CCOc1cc(Nc2ncc(C)c(Nc3ccc(CNS(=O)(=O)C4CC4)cc3)n2)cc(OC)c1OC [II-209, 5-Methyl-N4-[4-(N-cyclopropylsulfonylamino)methylphenyl]-N2-[3,4-dimethoxy-5-ethoxyphenyl]-2,4-pyrimidinediamine] |
| 167 | CCOc1cc(Nc2ncc(Cl)c(Nc3ccc(CNS(=O)(=O)C4CC4)cc3)n2)cc(OC)c1OC [II-210, 5-Chloro-N4-[4-(N-cyclopropylsulfonylamino)methylphenyl]-N2-[3,4-dimethoxy-5-ethoxyphenyl]-2,4-pyrimidinediamine] |
| 39.4 | CCOc1c(C)cc(Nc2ncc(Cl)c(Nc3ccc(CNS(=O)(=O)C4CC4)cc3)n2)cc1C [II-211, 5-Chloro-N4-[4-(N-cyclopropylsulfonylamino)methylphenyl]-N2-[3,5-dimethyl-4-ethoxyphenyl]-2,4-pyrimidinediamine] |
